Measured values from ChEMBL document CHEMBL5046279, “Discovery of a Partial Glucokinase Activator Clinical Candidate: Diethyl ((3-(3-((5-(Azetidine-1-carbonyl)pyrazin-2-yl)oxy)-5-isopropoxybenzamido)-1H-pyrazol-1-yl)methyl)phosphonate (BMS-820132)” (J Med Chem, 2022).
Values after ≈ are worked out from the molar mass of the structure shown.

Columns and labels:
[1] = AUC (0 to 24 hrs) in CD1 mouse at 5 mg/kg, po measured upto 24 hrs by LC-MS/MS analysis; assay type: ADME, organism-based; set-up: route oral, dose 5 mg/kg, time <=24; conditions: in vivo
[2] = AUC (0 to 24 hrs) in cynomolgus monkey at 3 mg/kg, iv measured upto 24 hrs; assay type: ADME, organism-based, Macaca fascicularis; set-up: route intravenous, dose 3 mg/kg, time <=24; conditions: in vivo
[3] = AUC (0 to 24 hrs) in cynomolgus monkey at 3 mg/kg, po measured upto 24 hrs; assay type: ADME, organism-based, Macaca fascicularis; set-up: route oral, dose 3 mg/kg, time <=24; conditions: in vivo
[4] = Aqueous solubility of the compound at pH 6.5 using amorphous form of sample; assay type: physicochemical; conditions: aqueous solution
[5] = Microsomal stability in human liver microsomes assessed as parent compound remaining at 0.5 uM measured after 10 mins in presence of NADPH; assay type: ADME, Microsome; conditions: read-out: Stability
[6] = Cmax in CD1 mouse at 5 mg/kg, po measured upto 24 hrs by LC-MS/MS analysis; assay type: ADME, organism-based; set-up: route oral, dose 5 mg/kg, time <=24; conditions: in vivo
[7] = Cmax in Beagle dog at 3 mg/kg, po measured upto 24 hrs; assay type: ADME, organism-based, Canis lupus familiaris; set-up: route oral, dose 3 mg/kg, time <=24; conditions: in vivo
[8] = Cmax in cynomolgus monkey at 3 mg/kg, po measured upto 24 hrs; assay type: ADME, organism-based, Macaca fascicularis; set-up: route oral, dose 3 mg/kg, time <=24; conditions: in vivo
[9] = Tmax in CD1 mouse at 5 mg/kg, po measured upto 24 hrs by LC-MS/MS analysis; assay type: ADME, organism-based; conditions: in vivo
[10] = Tmax in cynomolgus monkey at 3 mg/kg, po measured upto 24 hrs; assay type: ADME, organism-based, Macaca fascicularis; conditions: in vivo
[11] = Half life in Beagle dog at 3 mg/kg, iv measured upto 24 hrs; assay type: ADME, organism-based, Canis lupus familiaris; conditions: in vivo
[12] = Half life in cynomolgus monkey at 3 mg/kg, iv measured upto 24 hrs; assay type: ADME, organism-based, Macaca fascicularis; conditions: in vivo
[13] = Volume of distribution at steady state in Beagle dog at 3 mg/kg, iv measured upto 24 hrs; assay type: ADME, organism-based, Canis lupus familiaris; conditions: in vivo, read-out: Vdss
[14] = Volume of distribution at steady state in cynomolgus monkey at 3 mg/kg, iv measured upto 24 hrs; assay type: ADME, organism-based, Macaca fascicularis; conditions: in vivo, read-out: Vdss
[15] = Systemic plasma clearance in Beagle dog at 3 mg/kg, iv measured upto 24 hrs; assay type: ADME, organism-based, Canis lupus familiaris
[16] = Oral bioavailability in cynomolgus monkey at 3 mg/kg measured upto 24 hrs; assay type: ADME, organism-based, Macaca fascicularis; conditions: in vivo
[17] = AUC (0 to 24 hrs) in CD1 mouse at 2.5 mg/kg, iv measured upto 24 hrs by LC-MS/MS analysis; assay type: ADME, organism-based; set-up: route intravenous, dose 2.5 mg/kg, time <=24; conditions: in vivo
[18] = AUC (0 to 24 hrs) in Beagle dog at 3 mg/kg, iv measured upto 24 hrs; assay type: ADME, organism-based, Canis lupus familiaris; set-up: route intravenous, dose 3 mg/kg, time <=24; conditions: in vivo
[19] = AUC (0 to 24 hrs) in Beagle dog at 3 mg/kg, po measured upto 24 hrs; assay type: ADME, organism-based, Canis lupus familiaris; set-up: route oral, dose 3 mg/kg, time <=24; conditions: in vivo
[20] = biological target: ATP-dependent translocase ABCB1 (Homo sapiens, UniProt P08183); experiment: Inhibition of P-gp transporter (unknown origin)
ATP-dependent translocase ABCB1, sequence (P08183 whole entry): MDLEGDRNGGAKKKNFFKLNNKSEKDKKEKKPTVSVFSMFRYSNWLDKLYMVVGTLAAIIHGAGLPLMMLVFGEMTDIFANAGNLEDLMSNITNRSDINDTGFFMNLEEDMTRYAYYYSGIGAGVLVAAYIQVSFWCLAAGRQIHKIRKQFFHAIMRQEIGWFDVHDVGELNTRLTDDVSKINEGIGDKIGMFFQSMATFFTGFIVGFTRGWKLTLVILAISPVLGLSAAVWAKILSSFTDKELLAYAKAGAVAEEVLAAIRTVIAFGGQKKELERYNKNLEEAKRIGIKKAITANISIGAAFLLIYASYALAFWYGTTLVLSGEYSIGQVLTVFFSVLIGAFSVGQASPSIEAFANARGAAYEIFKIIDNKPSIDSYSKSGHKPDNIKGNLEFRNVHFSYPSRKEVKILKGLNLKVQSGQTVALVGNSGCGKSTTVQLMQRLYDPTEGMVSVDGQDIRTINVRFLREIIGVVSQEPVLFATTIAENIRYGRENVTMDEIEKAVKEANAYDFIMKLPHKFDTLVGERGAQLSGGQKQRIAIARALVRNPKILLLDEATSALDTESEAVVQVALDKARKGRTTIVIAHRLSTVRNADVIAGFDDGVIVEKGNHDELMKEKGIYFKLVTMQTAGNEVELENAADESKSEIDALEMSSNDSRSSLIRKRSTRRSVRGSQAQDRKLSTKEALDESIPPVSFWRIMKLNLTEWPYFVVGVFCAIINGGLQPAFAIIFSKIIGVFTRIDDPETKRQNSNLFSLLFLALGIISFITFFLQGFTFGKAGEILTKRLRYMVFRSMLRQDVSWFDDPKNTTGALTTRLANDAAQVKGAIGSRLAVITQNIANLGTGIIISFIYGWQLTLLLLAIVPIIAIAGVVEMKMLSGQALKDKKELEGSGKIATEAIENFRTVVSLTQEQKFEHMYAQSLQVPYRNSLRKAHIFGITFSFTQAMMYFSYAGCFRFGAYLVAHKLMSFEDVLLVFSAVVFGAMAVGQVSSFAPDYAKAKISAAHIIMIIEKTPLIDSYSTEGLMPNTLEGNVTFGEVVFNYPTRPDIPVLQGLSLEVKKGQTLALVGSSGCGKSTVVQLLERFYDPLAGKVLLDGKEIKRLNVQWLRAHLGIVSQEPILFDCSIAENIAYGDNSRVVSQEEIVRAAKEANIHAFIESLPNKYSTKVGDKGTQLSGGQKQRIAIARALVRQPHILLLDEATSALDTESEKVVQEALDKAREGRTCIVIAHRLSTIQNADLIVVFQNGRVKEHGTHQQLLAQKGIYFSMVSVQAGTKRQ

sodium channel [21] = experiment: Inhibition of sodium channel (unknown origin) at 1 Hz at 10 uM by patch clamp assay relative to control; assay type: toxicity; conditions: human
sodium channel [22] = experiment: Inhibition of sodium channel (unknown origin) at 4 Hz at 10 uM by patch clamp assay relative to control; assay type: toxicity; conditions: human
Salmonella typhimurium [23] = experiment: Mutagenicity in Salmonella typhimurium TA100 at 5000 ug/plate in presence of S9 fraction by Ames test; assay type: toxicity, organism-based; conditions: salmonella enterica subsp. enterica serovar typhimurium, dose 5000 µg
Salmonella typhimurium [24] = experiment: Mutagenicity in Salmonella typhimurium TA100 at 5000 ug/plate in absence of S9 fraction by Ames test; assay type: toxicity, organism-based; conditions: salmonella enterica subsp. enterica serovar typhimurium; dose 5000 µg
Salmonella typhimurium [25] = experiment: Mutagenicity in Salmonella typhimurium TA98 at 5000 ug/plate in absence of S9 fraction by Ames test; assay type: toxicity, organism-based; conditions: salmonella enterica subsp. enterica serovar typhimurium; dose 5000 µg
Salmonella typhimurium [26] = experiment: Mutagenicity in Salmonella typhimurium TA1537 at 5000 ug/plate in presence of S9 fraction by Ames test; assay type: toxicity, organism-based; conditions: salmonella enterica subsp. enterica serovar typhimurium, dose 5000 µg
Salmonella typhimurium [27] = experiment: Mutagenicity in Salmonella typhimurium TA1537 at 5000 ug/plate in absence of S9 fraction by Ames test; assay type: toxicity, organism-based; conditions: salmonella enterica subsp. enterica serovar typhimurium; dose 5000 µg
Escherichia coli [28] = experiment: Mutagenicity in Escherichia coli WP2 uvrA at 5000 ug/plate in presence of S9 fraction by Ames test; assay type: toxicity, organism-based; conditions: dose 5000 µg
Escherichia coli [29] = experiment: Mutagenicity in Escherichia coli WP2 uvrA at 5000 ug/plate in absence of S9 fraction by Ames test; assay type: toxicity, organism-based
CHO = experiment: Mutagenicity in CHO cells; assay type: toxicity, cell-based, Cricetulus griseus; conditions: chinese hamster
[30] = Phototoxicity in BALB/c mouse 3T3 fibroblasts; assay type: toxicity, cell-based
Hexokinase-4 = biological target: T1, Hexokinase-4 (Mus musculus, UniProt P52792); experiment: Activation of recombinant mouse full length liver glucokinase expressed in Escherichia coli incubated for 10 mins in presence of 12 mM glucose by plate reader analysis
T1 sequence (P52792 whole entry): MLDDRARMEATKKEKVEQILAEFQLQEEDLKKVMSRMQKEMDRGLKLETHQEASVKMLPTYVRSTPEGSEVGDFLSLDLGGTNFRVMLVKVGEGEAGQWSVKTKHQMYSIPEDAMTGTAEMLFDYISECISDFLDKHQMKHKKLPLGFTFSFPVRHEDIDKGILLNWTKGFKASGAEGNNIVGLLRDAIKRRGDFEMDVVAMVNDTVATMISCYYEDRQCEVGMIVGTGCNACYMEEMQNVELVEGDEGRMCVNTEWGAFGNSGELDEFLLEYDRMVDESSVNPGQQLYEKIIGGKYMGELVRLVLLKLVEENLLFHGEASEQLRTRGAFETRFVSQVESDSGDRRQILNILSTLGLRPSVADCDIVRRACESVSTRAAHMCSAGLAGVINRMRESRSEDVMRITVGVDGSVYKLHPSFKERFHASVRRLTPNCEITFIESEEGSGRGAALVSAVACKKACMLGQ

Mus musculus [31] = experiment: Anti-hyperglycemic activity in C57BL/6J DIO mouse assessed as reduction in plasma glucose AUC at 1 umol/kg incubated for 120 mins by OGTT; assay type: functional; set-up: scale not given: the % may be the effect or the level left; conditions: dose 1 µM/Kg, 2 h, at 1 µmol/kg
Mus musculus [32] = experiment: Anti-hyperglycemic activity in C57BL/6J DIO mouse assessed as reduction in plasma glucose level at 3 umol/kg measured at 1 hr post dose on day 1 by OGTT; assay type: functional; set-up: scale not given: the % may be the effect or the level left; conditions: dose 3 µM/Kg, at 3 µmol/kg
Mus musculus [33] = experiment: Anti-hyperglycemic activity in C57BL/6J DIO mouse assessed as reduction in plasma glucose level at 30 umol/kg measured at 1 hr post dose on day 1 by OGTT; assay type: functional; set-up: scale not given: the % may be the effect or the level left; conditions: dose 30 µM/Kg, at 30 µmol/kg
Mus musculus [34] = experiment: Anti-hyperglycemic activity in C57BL/6J DIO mouse assessed as reduction in plasma glucose level at 3 umol/kg measured after 14 days; assay type: functional; set-up: scale not given: the % may be the effect or the level left; conditions: dose 3 µM/Kg; time 14 day; at 3 µmol/kg
Mus musculus [35] = experiment: Anti-hyperglycemic activity in C57BL/6J DIO mouse assessed as reduction in plasma glucose AUC at 0.3 umol/kg incubated for 120 mins by OGTT; assay type: functional; set-up: scale not given: the % may be the effect or the level left; conditions: dose 0.3 µM/Kg, 2 h, at 0.3 µmol/kg

## CCOP(=O)(Cn1ccc(NC(=O)c2cc(Oc3cnc(C(=O)N4CCC4)cn3)cc(OC(C)C)c2)n1)OCC
[1]
  AUC(0-t): 49.7 µM·h
[2]
  AUC(0-t): 3.8 µM·h
[3]
  AUC(0-t): 0.57 µM·h
[4]
  solubility: 10 µg/mL (≈ 17.5 µM)
[5]
  remaining at 10 min, 0.5 µM: 96%
[6]
  Cmax: 14.1 µM
[7]
  Cmax: 4.9 µM
[8]
  Cmax: 0.38 µM
[9]
  Tmax: 0.5 h
[10]
  Tmax: 1.3 h
[11]
  half-life: 1.8 h
[12]
  half-life: 1.9 h
[13]
  Vd: 0.5 L/kg
[14]
  Vd: 1.1 L/kg
[15]
  clearance: 7.2 mL/min/kg
[16]
  bioavailability: 15%
[17]
  AUC(0-t): 24.9 µM·h
[18]
  AUC(0-t): 12.3 µM·h
[19]
  AUC(0-t): 8 µM·h
[20]
  IC50: 55 µM
Sodium channel [21]
  inhibition at 10 µM: 9%
Sodium channel [22]
  inhibition at 10 µM: 12%
Salmonella typhimurium [23]
  Activity: Non-Toxic
Salmonella typhimurium [24]
  Activity: Non-Toxic
Salmonella typhimurium [25]
  Activity: Non-Toxic
Salmonella typhimurium [26]
  Activity: Non-Toxic
Salmonella typhimurium [27]
  Activity: Non-Toxic
Escherichia coli [28]
  Activity: Non-Toxic
Escherichia coli [29]
  Activity: Non-Toxic
CHO
  Activity: Toxic
[30]
  Activity: Toxic
Hexokinase-4
  EC50: 0.032 µM
Mus musculus [31]
  Activity: -28%
Mus musculus [32]
  Activity: -32%
Mus musculus [33]
  Activity: -46%
Mus musculus [34]
  Activity: -48%
Mus musculus [35]
  Activity: -18%
